Ten compounds from patent publication US20260174739A1 (priority 2022, published 2026) can be followed below.

Series [1] is described as follows: Human liver microsome assay (metabolic stability). The format is in vitro ADME. To be noted: pH 7.4, human liver microsomes 0.2 mg/mL, 1 μM test drug, NADPH, 37° C.; for half-life at 1 μM: read-out: Half-life (t1/2, min); for CLint scaled at 1 μM: read-out: Intrinsic clearance (Clint, mL/min/kg). As to the method: Control and reagent: NADPH, magnesium chloride, testosterone, phosphate buffer, etc. were supplied by Dalian Meilun Biotech Co., Ltd., etc.
Liver microsome: human liver microsomes were supplied by Corning.
Experimental step: the liver microsome incubations were performed in 96-well plates, each incubation system having a volume of 200 μL, in a medium of 0.1 M phosphate buffer (pH 7.4), including liver microsomes at a final concentration of 0.2 mg/mL, 1 μM of the test drug, 3.0 mM MgCl2, 0.01% DMSO, 0.5% acetonitrile, and 2.0 mM NADPH. The incubation system described above without NADPH was pre-incubated at 37° C. for 5 min using a rotary water bath constant temperature oscillator. NADPH was added to initiate the reaction. At 0, 5, 15, 30, and 60 min, 20 μL of the sample was taken out from the incubation system after mixing well and added to 200 μL of acetonitrile containing an internal standard to terminate the reaction. Under the same conditions, 1 μM testosterone was used as a positive control to assess the reliability of the reaction system. For the negative control, phosphate buffer was used instead of NADPH, and all other incubation conditions remained the same. At 60 min, 20 μL of the sample was taken out after mixing well and added to 200 μL of termination solution containing an internal standard to terminate the reaction.
Sample analysis: After treatments such as precipitated protein extraction with an organic solvent, the incubated sample was analyzed using liquid chromatography-tandem mass spectrometry (LC-MS/MS). The concentrations of the test drug or the positive control drug in the sample were semi-quantified. The concentration in the sample was expressed using the ratio of the analyte peak area to the internal standard peak area.
Data processing and analysis: A standard curve of the In residual rate of the drug in the incubation system with respect to the incubation time was plotted by using Excel software, linear regression was performed to obtain a slope k, and the half-life T1/2 (min) and the intrinsic clearance CLint (mL/min/kg) were calculated according to the following formula: […]
On the technique in general: Liver microsomes are a subcellular fraction often used to study metabolism.

Series [2] can be described thus: In vivo metabolism (pharmacokinetic) experiment in mice. Further details: species or system male ICR mice. To be noted: mouse, male ICR mice; for bioavailability: oral 10 mg/kg vs iv 2.5 mg/kg, read-out: F (%); for AUC(0-inf) / Cmax / half-life: oral 10 mg/kg, plasma; for AUC(0-inf): read-out: AUC0-inf(po); for Cmax: read-out: Cmax (po); for half-life: read-out: T1/2 (po) (converted). The method, then: Animal: male ICR mice. The animals were randomly assigned to treatment groups and fasted for 12 h prior to dosing.
Drug: the compound of the present disclosure was dissolved in a vehicle (5% DMSO+5% Solutol HS15+90% saline). For intravenous (iv) administration, the dose was 2.5 mg/kg with a dosing volume of 5 mL/kg; for oral (po) administration, the dose was 10 mg/kg with a dosing volume of 10 mL/kg body weight. Sample collection and bioanalysis: blood was collected from the orbit of the mice and added into EP tubes containing heparin sodium at 0.083, 0.25, 0.5, 1, 2, 4, 6, and 8 h (n=3 for each time point). Immediately after blood collection, the mice were euthanized by cervical dislocation, and mouse brains were collected at the corresponding time points. All samples were promptly collected, snap-frozen, and stored at −70° C. for later use. Plasma samples were obtained by centrifugation of whole blood. 10 μL of plasma was mixed with 190 μL of internal standard solution (20 ng/ml in acetonitrile containing 0.1% formic acid). After mixing, the samples were centrifuged at 13000 rpm for 10 min, and 120 μL of the supernatant was separately collected. Depending on the sensitivity of the compound, 0.5-10 μL of the supernatant was taken for drug analysis using the appropriate liquid chromatography-tandem mass spectrometry (LC-MS/MS). Each analyte was calibrated and identified using standards. According to brain tissue: the extract (50% acetonitrile/water) at a ratio of 1 g:8 mL was homogenized for 2 min using five 3 mm magnetic beads in an OMNI Bead Ruptor 24 Elite homogenizer at 3.2 m/s and centrifuged at 4° C. and 3000 g for 3 min. 50 μL of the supernatant was mixed with 200 μL of internal standard solution (20 ng/mL in 80% acetonitrile/water). After mixing, the samples were centrifuged at 13,000 rpm for 10 min, and 120 μL of the supernatant was separately collected. Depending on the sensitivity of the compound, 0.5-10 μL of the supernatant was taken for drug analysis using the appropriate LC-MS/MS method. Each analyte was calibrated and identified using standards.
Data analysis: drug concentrations below the lower limit of quantification (LLOQ) were considered zero. Pharmacokinetic parameters were analyzed using PK Solver with a non-compartmental, bolus injection or extravascular input analysis models. Data points below the LLOQ were excluded to improve the efficacy of t1/2 calculation.

A further series has as its system male C57 mice. Nature of the series: Forced swim test. The class given is in vivo. To be noted: intraperitoneal injection, test 0.5 h after dosing, motionless time in last 4 min. The method, then:
Drug: the compound of the present disclosure was first uniformly mixed with 5% DMSO and 5% Solutol® HS 15. hysiological saline was then added to make up 90% of the final volume. The mixture was prepared at an appropriate concentration immediately before use.
Animal: male C57 mice, about 22 g. The animals were randomly divided into a blank control group and test drug groups, 8 animals per group, and mice in each group were administered either the vehicle or the test compound via intraperitoneal injection.
Experimental steps: the mice were subjected to forced swim test 0.5 h after dosing. The water level in the forced swim device was 45 cm, and the water temperature was 25° C. The mice were placed in an experimental room to adapt to the environment for 1 h before the experiment began. When the experiment began, the mice were placed in the device for 6 min, and the whole process was recorded by a camera. Only the motionless time of the mice in the last 4 min was counted when data were analyzed.

A further series concerns the target human DAT (Homo sapiens, UniProt Q01959). Nature of the series: DAT transporter inhibitory activity test (neurotransmitter transporter uptake assay kit). The class given is cell-based. The method, then:
(§1) Transporter inhibition of human DAT and NET expressed in HEK-293 cells was assessed using a neurotransmitter transporter uptake assay kit. The assay was performed as described in the kit instructions, using centanafadine as a positive control. The specific procedures were as follows:
DAT stably transfected culture: The DAT-HEK cell line was cultured in DMEM medium containing 10% fetal bovine serum and 0.2 mg/mL hygromycin B at 37° C. with 5% carbon dioxide.
DAT stably transfected cell passage: the old medium was removed, and the cells were washed once with PBS; 1 mL of TrypLE™ Express solution was then added, and the cells were incubated at 37° C. for about 2 min. When the cells were detached from the bottom of the dish, about 5 mL of complete medium pre-heated at 37° C. was added. The cell suspension was gently pipetted to separate the aggregated cells. The cell suspension was transferred to a sterile centrifuge tube and centrifuged at 1000 rpm for 5 min. In order to maintain the physiological activity of the cells, the experimental cell confluence was controlled at about 80%.
• a) After overnight transfection of NET cells, the cells were digested with trypsin, resuspended with DMEM+10% Dialyzed FBS medium, seeded into a 384-well plate at 20000 cells/well, and incubated overnight. […] After centrifuging, the plate was incubated at 37° C. for 30 min. • e) A detection reagent was prepared using 1×HBSS, and 16 μL of the detection reagent was added to each well. […] Curve fitting and IC50 calculation were performed using GraphPad Prism software nonlinear regression method.

A further series concerns the target human SERT (Homo sapiens, UniProt P31645). Nature of the series: Inhibitory activity assay against 5-HT transporter (neurotransmitter transporter uptake assay kit). To be noted: HEK-293 cells overexpressing human SERT; read-out: 5-HTT (IC50). The class given is cell-based. The method, then: In HEK-293 cells overexpressing human SERT, the transporter inhibitory effect of the test compound on human SERT was assayed using a Neurotransmitter transporter uptake assay kit (Molecular devices).

A further series concerns the target human NET (Homo sapiens, UniProt P23975). The series can be described thus: NET transporter inhibitory activity test (neurotransmitter transporter uptake assay kit). The format is cell-based. As to the method: as §1
First day cell plating: HEK 293T cells were digested with trypsin, centrifuged, resuspended with a medium, counted, and seeded into a 6 cm culture dish at a density of 3×10^6 cells/well.
Second day cell transfection: HEK 293T cells were subjected to medium exchange, and then A, B tubes were prepared for NET-pcDNA5/FRT plasmid to be transfected. 200 μL of Opti-MEM was added to tube A, and 10 μL of Lipofectamine™ 3000 was added. The mixture was mixed well. 200 μL of Opti-MEM was added to tube B, and 5 μg of NET-pcDNA5/FRT plasmid was added. The mixture was mixed well, and then 10 μL of P3000™ was added to tube B. The mixture was mixed well (plasmid to transfection reagent ratio 1 μg:2 μL). The diluted solution of tube A was added to the diluted solution of tube B. The mixture was mixed well, and incubated at room temperature for 15 min. Finally, the mixture was gently added to the cells that had been subjected to medium exchange, gently shaken to mix, and then incubated overnight in an incubator at 37° C. with a carbon dioxide concentration of 5%. The cells were used for compound functional activity assays 18-20 h after transfection.
• a) After overnight transfection of NET cells, the cells were digested with trypsin, resuspended with DMEM+10% Dialyzed FBS medium, seeded into a 384-well plate at 20000 cells/well, and incubated overnight. Stably transfected DAT cells were digested with trypsin, resuspended with DMEM+10% Dialyzed FBS medium, seeded into a 384-well plate at 2500 cells/well, and incubated overnight. • b) 1× Assay buffer was prepared according to the kit instruction for later use; the positive compound and the test compound were serially diluted with DMSO, and then diluted to 2× with 1× assay buffer. • c) The medium was removed from the 384-well plate by centrifugation. • d) 16 μL of the compound prepared in step b) was added to corresponding experimental wells, wherein an initial concentration of 2× positive control compound was added to the positive control well, and 0.2% DMSO buffer was added to the negative control well. After centrifuging, the plate was incubated at 37° C. for 30 min. • e) A detection reagent was prepared using 1×HBSS, and 16 μL of the detection reagent was added to each well. After centrifuging, the plate was incubated at 37° C. for 60 min. • f) After incubation, the reading at 510 nm under the excitation of the detection wavelength of 425 nm was measured using a microplate reader. Curve fitting and IC50 calculation were performed using GraphPad Prism software nonlinear regression method.

Where [3] appears, read: DAT stably transfected HEK cells, read-out: DAT (IC50).
Setting [4] is: NET transiently transfected HEK 293T cells, read-out: NET (IC50).

In general, Cmax refers to the maximum level reached in the sampled fluid or tissue. For orientation: pIC50 means the negative decadic logarithm of the IC50, by convention in mol/L.

pIC50: −log10 of the molar value. Where a name gives a salt, the structure may show the parent alone. Read-outs that look alike come from different tables or passages of the source. A value given as a limit tells only on which side of the number the result lay.

Sequence of human NET (P23975 whole entry): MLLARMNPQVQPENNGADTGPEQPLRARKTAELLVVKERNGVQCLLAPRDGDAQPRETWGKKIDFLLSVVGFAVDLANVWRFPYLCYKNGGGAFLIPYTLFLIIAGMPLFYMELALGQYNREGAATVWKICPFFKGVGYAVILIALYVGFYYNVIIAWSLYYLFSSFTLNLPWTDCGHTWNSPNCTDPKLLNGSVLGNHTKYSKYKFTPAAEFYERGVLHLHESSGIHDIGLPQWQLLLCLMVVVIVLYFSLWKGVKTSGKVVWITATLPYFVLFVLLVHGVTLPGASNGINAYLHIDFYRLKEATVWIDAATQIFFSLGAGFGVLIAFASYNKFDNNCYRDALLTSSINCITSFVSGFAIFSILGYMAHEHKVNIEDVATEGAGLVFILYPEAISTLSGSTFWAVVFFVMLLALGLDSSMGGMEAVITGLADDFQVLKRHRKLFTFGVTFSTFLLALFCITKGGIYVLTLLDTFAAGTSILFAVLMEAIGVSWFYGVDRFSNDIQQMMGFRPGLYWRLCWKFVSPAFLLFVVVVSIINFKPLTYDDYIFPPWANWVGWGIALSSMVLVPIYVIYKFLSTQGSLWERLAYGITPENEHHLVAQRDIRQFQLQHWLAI
Sequence of human DAT (Q01959 whole entry): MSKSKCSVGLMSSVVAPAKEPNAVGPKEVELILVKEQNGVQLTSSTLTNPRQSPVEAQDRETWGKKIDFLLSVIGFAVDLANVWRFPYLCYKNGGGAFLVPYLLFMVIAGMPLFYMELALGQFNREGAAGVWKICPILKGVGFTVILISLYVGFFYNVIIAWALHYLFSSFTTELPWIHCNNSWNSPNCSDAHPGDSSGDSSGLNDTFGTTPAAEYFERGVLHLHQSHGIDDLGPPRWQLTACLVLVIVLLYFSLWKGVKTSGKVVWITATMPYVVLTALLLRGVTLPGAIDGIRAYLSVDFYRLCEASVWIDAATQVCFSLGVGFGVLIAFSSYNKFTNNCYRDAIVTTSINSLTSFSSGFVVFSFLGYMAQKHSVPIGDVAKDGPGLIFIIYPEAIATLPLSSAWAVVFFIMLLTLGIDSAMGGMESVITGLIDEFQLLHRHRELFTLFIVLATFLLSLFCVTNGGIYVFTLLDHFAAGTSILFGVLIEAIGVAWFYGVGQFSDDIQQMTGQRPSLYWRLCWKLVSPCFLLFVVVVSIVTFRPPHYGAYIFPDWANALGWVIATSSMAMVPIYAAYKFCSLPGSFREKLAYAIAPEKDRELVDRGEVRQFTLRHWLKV
Sequence of human SERT (P31645 whole entry): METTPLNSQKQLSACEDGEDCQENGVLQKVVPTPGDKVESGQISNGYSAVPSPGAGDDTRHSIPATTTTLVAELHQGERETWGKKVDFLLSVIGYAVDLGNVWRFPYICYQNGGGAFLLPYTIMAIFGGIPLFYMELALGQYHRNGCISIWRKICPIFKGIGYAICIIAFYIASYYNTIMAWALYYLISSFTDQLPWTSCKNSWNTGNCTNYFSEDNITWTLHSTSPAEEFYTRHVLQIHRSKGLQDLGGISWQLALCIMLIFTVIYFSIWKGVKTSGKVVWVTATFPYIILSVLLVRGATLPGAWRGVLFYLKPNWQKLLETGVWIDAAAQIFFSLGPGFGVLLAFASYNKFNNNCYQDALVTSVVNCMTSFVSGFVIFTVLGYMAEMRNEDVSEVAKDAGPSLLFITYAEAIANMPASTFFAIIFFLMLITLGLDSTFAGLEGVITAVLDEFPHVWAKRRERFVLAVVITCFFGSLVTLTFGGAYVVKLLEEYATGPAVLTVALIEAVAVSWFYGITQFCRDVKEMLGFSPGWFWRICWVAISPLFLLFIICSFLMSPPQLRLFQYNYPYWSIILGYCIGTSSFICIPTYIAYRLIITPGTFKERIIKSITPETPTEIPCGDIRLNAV

As to `NC1(c2ccccc2)CCc2ncsc2C1` (racemic) [rac-A14, 6-phenyl-4,5,6,7-tetrahydrobenzothiazol-6-amine], the half-life at 1 μM in series [1] is over 120 min. In series [2] (male, ICR, po, 10 mg/kg), the bioavailability was found to be 105%, the AUC(0-inf) amounted to 2900 ng·h/mL, the highest concentration (Cmax) amounted to 1430 ng/mL and the half-life is 1.5 h. The “Effective dose” value in the series with male C57 mice is on record as 3 mg/kg.
`CN(C)C1(c2ccccc2)CCc2nc(N)sc2C1` (racemic) [rac-A114, N^6,N^6-dimethyl-6-phenyl-4,5,6,7-tetrahydrobenzothiazole-2,6-diamine]: the pIC50 at human DAT (setting [3]) was 6.00; on human SERT, 6.00; at human NET it was 5.46.
Take `Nc1nc2c(s1)CC(NCC1CC1)(c1ccccc1)CC2` (racemic) [rac-A67, 6-phenyl-N^6-(cyclopropylmethyl)-4,5,6,7-tetrahydrobenzothiazole-2,6-diamine]: the pIC50 at human NET was 5.52.
In the case of `NC1(c2ccccc2)CCc2[nH]ncc2C1` (racemic) [rac-A65, 5-phenyl-4,5,6,7-tetrahydro-1H-indazol-5-amine], the results for the pIC50 at human SERT and against human NET were 5.72 and 5.15, respectively.
In the case of `NC1(c2ccccc2)CCCc2sccc21` (racemic) [rac-A16, 4-phenyl-4,5,6,7-tetrahydrobenzothiophen-4-amine], in series [1], the half-life at 1 μM worked out at 42 min and the CLint scaled at 1 μM was 95.5 mL/min/kg. Besides, in series [2], the bioavailability is 41%, the AUC(0-inf) turned out to be 501 ng·h/mL, the highest concentration (Cmax) was determined as 252 ng/mL and the half-life is 1.76 h. Also, the “Effective dose” value in the series with male C57 mice is 3 mg/kg.
Turning to `c1ccc([C@@]2(N3CCCC3)CCc3[nH]ncc3C2)cc1` [R-A12], the values for the negative-log IC50 (pIC50) at human DAT (setting [3]) and at human NET (setting [4]) were 5.70 and 5.42, respectively.
Regarding `Nc1nc2c(s1)C[C@](c1ccccc1)(N1CCCC1)CC2` [R-A50], on human NET (setting [4]), the pIC50 was 6.70.
On to `CNC1(c2ccccc2)CCCc2sc(N)nc21` (racemic) [rac-A38, N^4-methyl-4-phenyl-4,5,6,7-tetrahydrobenzothiazole-2,4-diamine], for which, in series [1], the half-life at 1 μM was 98 min and the CLint scaled at 1 μM is 41.3 mL/min/kg. In series [2] (male, ICR, po, 10 mg/kg), the bioavailability was found to be 71%, the AUC(0-inf) turned out to be 1620 ng·h/mL, the Cmax is 360 ng/mL and the half-life is 1.8 h. Besides, the “Effective dose” value with male C57 mice is 3 mg/kg.
For `c1ccc2cc([C@]34CNC[C@H]3C4)ccc2c1` [Centanafadine, centanafadine, reference compound], the pIC50 against human DAT is 7.10; against human NET, 7.52.
Regarding `CNC1(c2ccc(C(F)(F)F)cc2)CCc2nc(N)sc2C1` (racemic) [rac-A96, 6-(4-trifluoromethylphenyl)-N^6-methyl-4,5,6,7-tetrahydrobenzothiazole-2,6-diamine hydrobromide], the pIC50 at human NET was 4.85.
